Results published in patent US3989714A, “3-Phenylhydroindoles” (priority 1974, dated 1976).
Where “and” joins values, the source holds several entries; their conditions need not be identical. Identical values can stand only once. Counter-ions that a name gives are not always drawn.

Legend:
Rhinovirus 2 (HGP) [1] = assay: Antiviral activity tube method (Rightsel procedure), liquid media, HeLa cells; assay type: cell-based; settings: for Antiviral: concentration at which active, Day 4: 20 TCID50 (Example 7)
From the text: (§1) Compounds of the present invention show antiviral activity in concentrations of 50 to 100 γ/ml when tested in liquid media using the procedure of Rightsel (Univ. of Mich. Med. Bull. 24:222-234 (1958)) and on solid media using the Herrmann modification of the Dulbecco Technique (Proc. Nat. Acad. Sci., Wash. 38:747-752 (1952); Proc. Soc. Exp. Bio., N.Y., 103: 625-628 (1960)).
(§2) More particularly the protocol for the Rightsel procedure used is as follows:
(§3) ANTIVIRAL ACTIVITY TUBE METHOD
(§4) PURPOSE: The determination of toxicity and antiviral activity of
(§5) experimental compounds in normal and cancer cell lines
(§6) in vitro in tubes with liquid culture media.
(§7) MATERIALS: Cell Lines - cancer
(§8) HeLa - Human Carcinoma of the Cervix
(§9) Virus - Rhinovirus 2 (HGP)
Growth Medium - Basal Medium Eagle (BME) with Earle's
salts, containing 10 % fetal bovine serum,
penicillin (100 units/ml.) and
streptomycin (100 mcg./ml.)
Maintenance Medium - A 1:1 mixture of BME and Medium
199; contains 2 % fetal bovine serum.
Trypsin - (1-300) 0.25 % in Ca-free and Mg-free
Hanks' balanced salt solution (BSS)
Roller Bottles - Bellco
Tubes - Sterile 16 × 150 mm plastic screw top
(§10) Roller bottles are seeded with approximately 10^7 cells
(§11) in […] growth medium and rotated at 0.5 rpm on
(§12) the Bellco roller apparatus at 37° C until the cell
(§13) Trypsinization - Cells are resuspended in growth medium
(§14) at a concentration of […] HeLa cells/ml.
(§15) cell suspensions are gassed with CO2 to a pH of 6.8.
(§16) Sterile plastic tubes are seeded with 1.0 ml of cell
(§17) suspension and incubated in a stationary position for
(§18) two days (until cell sheet is confluent).
(§19) The compound is dissolved in distilled water at a maximum
(§20) concentration of 500 gamma/ml. Where necessary, NaOH,
(§21) HCl or ethanol is used to dissolve the material. The
(§22) pH of the final solution is adjusted as closely as
(§23) possible to pH 7.2. This stock solution is then
(§24) diluted with medium to contain appropriate concentrations
The virus is thawed rapidly at 37° C and diluted
in maintenance medium - to 10-^8 for titration and to an
estimated 10 - 100 Tissue Culture Infectious Dose50
PROCEDURE: The growth medium is decanted from the cell sheet in the
Adsorbed virus system: 0.1 ml of virus dilution is added
to each of the tubes and the tubes are rolled at 33°
(§25) for 1 hour. Cytotoxicity and control tubes are rolled
(§26) with just 0.1 ml of medium. After a 1 hour adsorption
period, 0.9 ml of the appropriate dilution of the test
compound is added to each of the tubes and the tubes
are returned to the roller apparatus.
Unadsorbed virus system: 0.1 ml of the diluted virus and
0.9 ml of the diluted test compound are added simultaneously
to a tube and the tubes rotated at 33° C.
(§27) RECORDING: HeLa cell cultures are read every day, starting on day 3
(§28) and readings are continued until culture controls have
(§29) shown a non-specific cytopathic effect (CPE) in about
(§30) 5-6 days. WI-38 cultures are read every other day,
starting with day 3, for 10-14 days.
(§31) on the degree and nature of the CPE. Viral CPE is
also recorded as 0 - 4+, depending on the percent of
(§32) the cell sheet showing virus growth. Four tubes are
(§33) used for each concentration of compound and for each
(§34) concentration of virus dilution, and the four CPE
(§35) ratings within each group are averaged.
To be considered active, a specific concentration of a test
compound must average 2 or more points below that of the
virus control. Actual TCID50 of virus used is
by method of Reed and Muench.

in vitro = assay type: cell-based, Human; settings: human, hela cells
From the text: as §1, §2, §3, §4, §5, §6, §7, §8, §10, §11, §12, §13, §14, §15, §16, §17, §18, §19, §20, §21, §22, §23, §24, §25, §26, §27, §28, §29, §30
(§36) Compound cytoxicity is recorded as 0 - 4+, depending
as §31, §32, §33, §34, §35

HeLa [2] = assay: in vitro; assay type: cell-based, Human
From the text: as §1, §2, §3, §4, §5, §6, §7, §8, §10, §11, §12, §13, §14, §15, §16, §17, §18, §19, §20, §21, §22, §23, §24, §25, §26, §27, §28, §29, §30, §36, §31, §32, §33, §34, §35

Rhinovirus 2 (HGP) [3] = assay: Antiviral Activity, Solid Media (Herrmann modification of the Dulbecco technique), plaque suppression by disc, HeLa cells; assay type: cell-based; settings: Rhinovirus 2 HGP adsorbed, Day 5, 100 mcg disc, virus 66 PFU/ml (Example 4), 970 PFU/ml (Example 7)
From the text: as §1
(§37) The procedure for the Herrmann modification used is as follows:
(§38) TEST NAME: Antiviral Activity, Solid Media
(§39) PURPOSE: The determination of toxicity and antiviral activity
(§40) of experimental compounds in normal and cancer cell
(§41) lines as measured by plaque suppression in solid media.
(§42) MATERIALS: Cell Line - Cancer
(§43) HeLa - Human carcinoma of the cervix
as §9
Growth Medium - Basal Medium Eagle (BME) containing 10 %
fetal bovine serum, penicillin (100 units/ml)
and streptomycin (100 mcg/ml).
Trypsin - (1-300) 0.25 % trypsin in Ca-free and Mg-free
Hanks' balanced salt solution (BSS).
(1) Rhinovirus: A 1:1 mixture of BME and
Medium 199. Contains 2 % fetal bovine serum
(FBS); 30 mM MgCl2; 0.3 % Tris; 30 gamma/ml
diethylaminoethyl (DEAE) dextran and 1 %
Wash Fluid - Phosphate-buffered saline (PBS) containing
Discs - Sterile Schleicher and Schuell 1/4"
penicillin assay discs.
Plates - Falcon plastic 60 × 15 mm dishes. […]
(§44) measured across the entire diameter (including disc).
The number of plaques on titration plates are counted to […]

HeLa [4] = assay: Cytotoxicity, solid media (disc), zones of cytotoxicity; assay type: cell-based, Human; settings: Day 5, 100 mcg disc
From the text: as §1, §37, §38, §39, §40, §41, §42, §43, §10
in 250-300 ml of growth medium and rotated at 0.5 rpm on
as §12
Cells are removed from the glass surface with trypsin.
The cells are resuspended in medium to a concentration
of 2.0 × 10^5 /ml. Falcon plastic 60 × 15 mm
seeded with 5.0 ml of cell suspension and incubated for
48 hours at 37° C in Pyrex baking dishes sealed with
Water-soluble compounds are prepared in distilled water
with the aid of HCl or NaOH as necessary. Solutions
are Millipore filtered. Water insoluble compounds are
Sterile Schleicher and Schuell 1/4" penicillin assay […]
as §44

MNTC at 96 h (in vitro)	MCC at 120 h (in vitro)	Structure (SMILES)	Antiviral: concentration at which active, Day 4 (Rhinovirus 2 (HGP) [1]; Tube, HeLa, Rhinovirus 2 HGP nonadsorbed, virus 31 TCID50 (Example 13), 100 TCID50 (Example 4), active = averages 2 or more points below virus control, hydrochloride)	Antiviral: concentration at which inactive, Day 5 (Rhinovirus 2 (HGP) [1]; Tube, HeLa, Rhinovirus 2 HGP nonadsorbed, Day 5, virus 31 TCID50 (Example 13), 100 TCID50 (Example 4))	Cytotoxicity: concentration at which toxic, Day 5 (HeLa [2])	toxic effect on the cells (HeLa [2])	Antiviral, disc (Rhinovirus 2 (HGP) [3]; hydrochloride)	Cytotoxicity, disc (HeLa [4])	Antiviral: concentration at which active, Day 4 (Rhinovirus 2 (HGP) [1]; Tube, HeLa, Rhinovirus 2 HGP nonadsorbed, virus 31 TCID50 (Example 13), 100 TCID50 (Example 4), active = averages 2 or more points below virus control)	Antiviral: concentration at which active, Day 5 (Rhinovirus 2 (HGP) [1]; Tube, HeLa, Rhinovirus 2 HGP nonadsorbed, Day 5, 20 TCID50, active = averages 2 or more points below virus control)	antiviral activity in the liquid system on 4th and 5th days (Rhinovirus 2 (HGP) [1]; liquid system, both the 4th and 5th days of incubation)	toxic effect of undetermined origin, day 5 (HeLa [2])	Antiviral, disc (Rhinovirus 2 (HGP) [3])	antiviral activity after four days of incubation, liquid test (Rhinovirus 2 (HGP) [1]; liquid test, four days of incubation)
100 µg/mL	–	COc1ccc(C2CN(O)C3CCCCC23)cc1OC (stereo not shown) [Example 4, 3-(3,4-dimethoxyphenyl)hexahydro-1-hydroxyindoline hydrochloride]	100 µg/mL and 50 µg/mL	6.25 µg/mL	100-12.5	undetermined toxic effect on the cells was observed	inactive	Nontoxic	–	–	–	–	–	–
100 µg/mL	100 µg/mL	COc1ccc(C2CN(O)C3(C)CCCCC23)cc1OC (stereo not shown) [Example 7, 3-(3,4-Dimethoxyphenyl)hexahydro-1-hydroxy-7a-methyl-indoline]	–	–	–	–	–	Nontoxic	100 µg/mL and 50 µg/mL	100 µg/mL and 50 µg/mL	showed activity at two concentrations	very slight toxic effect	inactive	–
108 µg/mL	–	COc1ccccc1C1C[N+]([O-])=C2CCCCC21.Cl (stereo not shown) [Example 13, 3,3a,4,5,6,7-hexahydro-3-(o-methoxyphenyl)-2H-indole 1-oxide hydrochloride]	–	–	108-10.5	undetermined toxic effect on the cells was observed	–	–	–	–	–	–	–	showed antiviral activity
